Experiment [1] can be described thus: cells. To be noted: Homo sapiens, KARPAS-299, 72 h.
Description: Cytotoxicity against human KARPAS299 cells harboring NPM-ALK assessed as reduction in cell proliferation after 72 hrs by MTT assay
Experiment [2] is described as follows: cells. To be noted: Homo sapiens, HCC78, 72 h.
Description: Cytotoxicity against human HCC78 cells harboring SLC34A2-ROS1 assessed as reduction in cell proliferation after 72 hrs by MTT assay
Experiment [3] is described as follows: cells. As to conditions: Homo sapiens, A549, 72 h.
Description: Cytotoxicity against human A549 cells assessed as reduction in cell proliferation after 72 hrs by MTT assay
The nature of experiment [4]: cells. To be noted: Homo sapiens, NCI-H460, 72 h.
Description: Cytotoxicity against human NCI-H460 cells assessed as reduction in cell proliferation after 72 hrs by MTT assay
Experiment [5] is described as follows: cells. To be noted: Homo sapiens, HT-29, 72 h.
Description: Cytotoxicity against human HT-29 cells assessed as reduction in cell proliferation after 72 hrs by MTT assay
Experiment [6] deals with ALK tyrosine kinase receptor (Homo sapiens, UniProt Q9UM73).
Description: Inhibition of ALK (unknown origin) using peptide as substrate after 60 mins by HTRF assay
Experiment [7] addresses ALK tyrosine kinase receptor (Homo sapiens, UniProt Q9UM73, L1196M).
Experiment [8] has as its system ALK tyrosine kinase receptor (Homo sapiens), Q9UM73 [L1196M]. The experiment in a line: Potency index, ratio of crizotinib IC50 to compound IC50 for ALK L1196M mutant (unknown origin).
In experiment [9] the target is Proto-oncogene tyrosine-protein kinase ROS (Homo sapiens, UniProt P08922).
Description: Inhibition of ROS1 (unknown origin) using peptide as substrate after 60 mins by HTRF assay
In experiment [10] the target is Hepatocyte growth factor receptor (Homo sapiens, UniProt P08581).
Description: Inhibition of c-Met (unknown origin) using peptide as substrate after 60 mins by HTRF assay
The target of experiment [11] is Epidermal growth factor receptor (Homo sapiens, UniProt P00533).
Description: Inhibition of EGFR (unknown origin) using peptide as substrate after 60 mins by HTRF assay

The source of these data is ChEMBL document CHEMBL3870304 (Eur J Med Chem, 2016).

Chain of ALK tyrosine kinase receptor (Homo sapiens, UniProt Q9UM73, L1196M) (Q9UM73 19-1620 L1196M limits assumed): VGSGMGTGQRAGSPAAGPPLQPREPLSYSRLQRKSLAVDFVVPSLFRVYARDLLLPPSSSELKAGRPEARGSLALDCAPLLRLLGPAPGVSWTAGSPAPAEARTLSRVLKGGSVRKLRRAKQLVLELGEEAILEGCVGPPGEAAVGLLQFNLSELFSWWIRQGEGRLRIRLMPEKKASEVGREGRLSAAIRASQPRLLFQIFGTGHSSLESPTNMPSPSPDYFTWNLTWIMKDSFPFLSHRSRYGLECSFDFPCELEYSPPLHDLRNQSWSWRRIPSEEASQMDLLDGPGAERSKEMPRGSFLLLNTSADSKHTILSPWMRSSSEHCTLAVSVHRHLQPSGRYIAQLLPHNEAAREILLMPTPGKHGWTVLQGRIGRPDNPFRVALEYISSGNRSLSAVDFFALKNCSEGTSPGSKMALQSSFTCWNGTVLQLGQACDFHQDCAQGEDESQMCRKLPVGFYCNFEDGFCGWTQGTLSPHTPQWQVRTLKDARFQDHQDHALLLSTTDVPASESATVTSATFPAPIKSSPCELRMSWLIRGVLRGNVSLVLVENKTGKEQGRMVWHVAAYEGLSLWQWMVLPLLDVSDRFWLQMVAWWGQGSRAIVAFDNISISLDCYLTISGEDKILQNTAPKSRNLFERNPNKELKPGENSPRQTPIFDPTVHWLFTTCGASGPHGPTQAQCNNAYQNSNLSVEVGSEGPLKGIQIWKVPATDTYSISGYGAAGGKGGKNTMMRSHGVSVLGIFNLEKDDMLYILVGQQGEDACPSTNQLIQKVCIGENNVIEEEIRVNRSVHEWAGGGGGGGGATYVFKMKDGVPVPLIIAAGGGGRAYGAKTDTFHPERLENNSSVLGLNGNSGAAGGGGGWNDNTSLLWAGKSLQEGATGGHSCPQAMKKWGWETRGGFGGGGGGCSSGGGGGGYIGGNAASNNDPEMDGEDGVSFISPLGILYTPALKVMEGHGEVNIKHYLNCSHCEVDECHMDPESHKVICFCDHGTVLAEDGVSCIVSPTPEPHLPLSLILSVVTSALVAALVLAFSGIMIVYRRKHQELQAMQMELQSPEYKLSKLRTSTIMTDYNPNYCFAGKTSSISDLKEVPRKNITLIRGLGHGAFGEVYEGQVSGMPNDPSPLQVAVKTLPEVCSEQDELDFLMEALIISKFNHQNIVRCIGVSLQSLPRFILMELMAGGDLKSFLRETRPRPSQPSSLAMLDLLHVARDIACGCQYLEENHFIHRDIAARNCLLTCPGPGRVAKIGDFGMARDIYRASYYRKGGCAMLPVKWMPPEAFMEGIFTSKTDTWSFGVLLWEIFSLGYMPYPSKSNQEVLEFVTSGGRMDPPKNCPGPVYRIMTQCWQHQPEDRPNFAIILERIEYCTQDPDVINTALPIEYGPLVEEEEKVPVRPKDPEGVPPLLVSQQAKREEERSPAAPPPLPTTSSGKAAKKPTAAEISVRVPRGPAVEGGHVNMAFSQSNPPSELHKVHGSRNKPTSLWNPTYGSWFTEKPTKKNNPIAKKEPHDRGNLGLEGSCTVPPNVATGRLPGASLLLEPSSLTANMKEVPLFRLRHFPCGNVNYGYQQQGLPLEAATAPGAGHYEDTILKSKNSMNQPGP
Chain of Proto-oncogene tyrosine-protein kinase ROS (P08922 whole entry): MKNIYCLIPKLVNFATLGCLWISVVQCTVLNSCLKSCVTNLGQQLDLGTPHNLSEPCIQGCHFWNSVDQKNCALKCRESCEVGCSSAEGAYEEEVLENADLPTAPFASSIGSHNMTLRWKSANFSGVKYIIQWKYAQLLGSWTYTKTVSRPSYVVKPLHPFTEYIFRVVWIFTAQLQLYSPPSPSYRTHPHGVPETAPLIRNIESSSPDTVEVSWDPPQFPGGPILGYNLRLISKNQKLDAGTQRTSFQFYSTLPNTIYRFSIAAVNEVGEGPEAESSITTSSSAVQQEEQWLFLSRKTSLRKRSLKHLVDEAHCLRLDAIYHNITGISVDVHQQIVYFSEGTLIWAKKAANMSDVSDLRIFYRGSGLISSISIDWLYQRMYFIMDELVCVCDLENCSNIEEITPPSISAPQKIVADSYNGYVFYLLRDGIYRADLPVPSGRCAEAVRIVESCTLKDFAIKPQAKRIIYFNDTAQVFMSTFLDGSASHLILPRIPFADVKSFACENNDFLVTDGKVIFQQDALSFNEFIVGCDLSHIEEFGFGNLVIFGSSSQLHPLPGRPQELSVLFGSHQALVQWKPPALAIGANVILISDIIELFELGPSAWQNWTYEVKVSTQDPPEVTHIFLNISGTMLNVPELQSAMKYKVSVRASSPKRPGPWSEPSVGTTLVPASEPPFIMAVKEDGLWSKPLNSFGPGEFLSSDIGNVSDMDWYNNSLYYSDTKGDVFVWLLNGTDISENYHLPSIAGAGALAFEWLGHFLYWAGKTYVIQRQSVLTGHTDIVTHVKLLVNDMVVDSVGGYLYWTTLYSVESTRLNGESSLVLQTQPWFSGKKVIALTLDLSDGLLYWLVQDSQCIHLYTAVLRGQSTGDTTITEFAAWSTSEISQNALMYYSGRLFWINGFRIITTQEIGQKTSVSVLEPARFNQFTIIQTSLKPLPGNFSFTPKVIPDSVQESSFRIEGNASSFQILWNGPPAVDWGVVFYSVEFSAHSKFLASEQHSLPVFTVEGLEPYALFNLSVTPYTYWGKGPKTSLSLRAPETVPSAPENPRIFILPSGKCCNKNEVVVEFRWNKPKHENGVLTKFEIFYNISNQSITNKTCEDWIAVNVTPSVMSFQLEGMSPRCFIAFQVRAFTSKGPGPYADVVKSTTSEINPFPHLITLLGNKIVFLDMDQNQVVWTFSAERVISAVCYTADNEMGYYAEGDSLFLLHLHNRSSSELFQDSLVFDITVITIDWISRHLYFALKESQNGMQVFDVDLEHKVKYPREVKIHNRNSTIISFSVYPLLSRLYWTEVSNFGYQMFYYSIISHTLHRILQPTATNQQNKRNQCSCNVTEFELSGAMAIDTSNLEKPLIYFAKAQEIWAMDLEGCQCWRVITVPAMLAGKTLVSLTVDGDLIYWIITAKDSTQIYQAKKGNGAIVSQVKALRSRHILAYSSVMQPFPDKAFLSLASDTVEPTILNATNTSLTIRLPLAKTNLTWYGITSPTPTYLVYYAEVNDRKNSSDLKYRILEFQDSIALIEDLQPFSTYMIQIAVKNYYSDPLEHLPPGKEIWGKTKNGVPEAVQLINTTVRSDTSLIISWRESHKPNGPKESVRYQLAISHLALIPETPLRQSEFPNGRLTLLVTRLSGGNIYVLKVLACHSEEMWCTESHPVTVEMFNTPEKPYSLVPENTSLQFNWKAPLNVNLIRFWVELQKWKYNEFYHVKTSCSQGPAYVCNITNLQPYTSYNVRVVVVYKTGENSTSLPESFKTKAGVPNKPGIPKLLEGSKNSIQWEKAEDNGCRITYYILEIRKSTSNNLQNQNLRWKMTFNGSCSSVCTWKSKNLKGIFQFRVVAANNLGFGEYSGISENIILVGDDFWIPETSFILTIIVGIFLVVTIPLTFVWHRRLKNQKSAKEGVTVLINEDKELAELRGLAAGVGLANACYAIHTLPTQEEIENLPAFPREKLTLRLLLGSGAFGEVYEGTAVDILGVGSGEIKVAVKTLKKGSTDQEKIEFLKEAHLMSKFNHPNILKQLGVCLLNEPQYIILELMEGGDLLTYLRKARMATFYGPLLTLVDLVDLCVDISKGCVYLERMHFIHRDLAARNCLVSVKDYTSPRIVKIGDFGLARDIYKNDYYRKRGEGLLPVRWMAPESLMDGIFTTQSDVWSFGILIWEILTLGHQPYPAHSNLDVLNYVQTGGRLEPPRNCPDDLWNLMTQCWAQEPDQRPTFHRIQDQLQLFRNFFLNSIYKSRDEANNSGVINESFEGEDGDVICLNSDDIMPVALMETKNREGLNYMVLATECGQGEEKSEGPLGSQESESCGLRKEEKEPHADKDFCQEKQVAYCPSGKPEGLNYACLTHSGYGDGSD
Chain of Epidermal growth factor receptor (P00533 whole entry): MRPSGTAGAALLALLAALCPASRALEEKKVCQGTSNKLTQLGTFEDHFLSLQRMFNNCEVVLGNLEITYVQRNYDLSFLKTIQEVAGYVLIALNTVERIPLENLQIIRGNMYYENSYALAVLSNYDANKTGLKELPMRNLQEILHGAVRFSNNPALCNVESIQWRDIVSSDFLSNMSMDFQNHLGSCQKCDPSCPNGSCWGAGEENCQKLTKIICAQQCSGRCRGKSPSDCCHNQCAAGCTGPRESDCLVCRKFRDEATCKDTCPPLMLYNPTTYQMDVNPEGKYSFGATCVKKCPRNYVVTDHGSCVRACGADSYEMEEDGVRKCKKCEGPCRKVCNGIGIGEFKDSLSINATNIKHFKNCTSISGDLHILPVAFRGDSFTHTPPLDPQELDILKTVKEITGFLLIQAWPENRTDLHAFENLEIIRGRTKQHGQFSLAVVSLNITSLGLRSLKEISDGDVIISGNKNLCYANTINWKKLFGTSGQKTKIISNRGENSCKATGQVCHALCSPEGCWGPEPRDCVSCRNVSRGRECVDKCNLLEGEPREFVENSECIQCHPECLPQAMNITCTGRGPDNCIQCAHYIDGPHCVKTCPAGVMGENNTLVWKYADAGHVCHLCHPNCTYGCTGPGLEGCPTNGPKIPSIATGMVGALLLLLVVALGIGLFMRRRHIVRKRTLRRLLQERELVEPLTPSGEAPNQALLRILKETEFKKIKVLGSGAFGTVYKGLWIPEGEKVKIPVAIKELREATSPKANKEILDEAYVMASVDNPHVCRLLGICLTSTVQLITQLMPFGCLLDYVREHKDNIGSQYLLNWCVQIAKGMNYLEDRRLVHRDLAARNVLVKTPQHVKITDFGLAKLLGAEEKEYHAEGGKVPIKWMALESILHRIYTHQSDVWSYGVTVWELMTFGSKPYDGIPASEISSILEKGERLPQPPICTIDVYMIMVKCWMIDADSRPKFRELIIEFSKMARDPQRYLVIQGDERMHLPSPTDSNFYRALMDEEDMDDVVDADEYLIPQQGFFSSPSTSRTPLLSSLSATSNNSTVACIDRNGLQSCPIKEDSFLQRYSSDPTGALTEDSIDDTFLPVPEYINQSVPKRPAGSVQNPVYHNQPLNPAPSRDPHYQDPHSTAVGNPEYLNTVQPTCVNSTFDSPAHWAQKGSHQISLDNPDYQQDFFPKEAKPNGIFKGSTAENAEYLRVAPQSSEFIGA

For the compound `CC(C)S(=O)(=O)c1ccccc1Nc1nc(N/N=C/c2ccc(Br)cc2)ncc1Cl`, the IC50 – broadly, the midpoint of a concentration-inhibition curve – was 1440 nM in “cells [1]”; 950 nM in the experiment “cells [2]”; 1310 nM in “cells [3]”; 3130 nM in “cells [4]”; 2300 nM in the experiment “cells [5]”.

Regarding `COc1ccccc1/C=N/Nc1ncc(Cl)c(Nc2ccccc2S(=O)(=O)C(C)C)n1`, the IC50 is 6930 nM in “cells [1]”; 4160 nM in the experiment “cells [2]”; 7040 nM in “cells [3]”; more than 10000 nM in “cells [4]”; more than 10000 nM in the experiment “cells [5]”.

For the compound `CC(C)S(=O)(=O)c1ccccc1Nc1nc(N/N=C/c2ccccc2Cl)ncc1Cl`, the concentration for half-maximal inhibition (IC50) is 5620 nM in “cells [1]”; 6300 nM in the experiment “cells [2]”; 7900 nM in the experiment “cells [3]”; 7120 nM in the experiment “cells [4]”; more than 10000 nM in “cells [5]”.

As for `CSc1ccc(/C(C)=N/Nc2ncc(Cl)c(Nc3ccccc3S(=O)(=O)C(C)C)n2)cc1`, the IC50 was 490 nM in “cells [1]”; 850 nM in the experiment “cells [2]”; more than 10000 nM in “cells [3]”; more than 10000 nM in “cells [4]”; 5430 nM in “cells [5]”.

Consider `CC(C)S(=O)(=O)c1ccccc1Nc1nc(N/N=C/c2ccc(C#N)cc2)ncc1Cl`, for which the IC50 in “cells [1]” came out at 340 nM; in the experiment “cells [2]”, 270 nM; in “cells [3]” it was 2510 nM; in the experiment “cells [4]”, 2830 nM; in the experiment “cells [5]”, 2960 nM.

As for `C/C(=N\Nc1ncc(Cl)c(Nc2ccccc2S(=O)(=O)C(C)C)n1)c1ccc(F)cc1F`, the half-maximal inhibitory concentration (IC50) in the experiment “cells [1]” was 440 nM; in “cells [2]” it was 670 nM; in the experiment “cells [3]”, 1650 nM; in “cells [4]”, more than 10000 nM; in “cells [5]” it was 2120 nM.

For `COc1cccc(/C=N/Nc2ncc(Cl)c(Nc3ccccc3S(=O)(=O)C(C)C)n2)c1`, the half-maximal inhibitory concentration (IC50) in [6] was 6.2 nM; in experiment [7], 86 nM; in experiment [9], 5.8 nM; in experiment [10], 376 nM; in experiment [11], 601 nM; in “cells [1]”, 22 nM. Further, the concentration for half-maximal inhibition (IC50) in the experiment “cells [2]” was 44 nM; in “cells [3]” it was 1250 nM; in “cells [4]”, 2230 nM; in “cells [5]” it was 5570 nM. Also, the Ratio IC50 in experiment [8] stood at 20.

As for `CSc1ccc(/C=N/Nc2ncc(Cl)c(Nc3ccccc3S(=O)(=O)C(C)C)n2)cc1`, the IC50 was determined as 280 nM in the experiment “cells [1]”; 210 nM in “cells [2]”; 880 nM in the experiment “cells [3]”; 320 nM in “cells [4]”; 980 nM in “cells [5]”.

Take `C/C(=N\Nc1ncc(Cl)c(Nc2ccccc2S(=O)(=O)C(C)C)n1)c1ccc(C)cc1`: the IC50 is 2230 nM in “cells [1]”; 2840 nM in the experiment “cells [2]”; more than 10000 nM in “cells [3]”; more than 10000 nM in “cells [4]”; more than 10000 nM in “cells [5]”.

As to `COc1ccc(/C(C)=N/Nc2ncc(Cl)c(Nc3ccccc3S(=O)(=O)C(C)C)n2)cc1`, the half-inhibitory concentration (IC50) in experiment [6] is 4.9 nM; in [7] it was 80 nM; in experiment [9] it was 4.7 nM; in [10] it was more than 1000 nM; in experiment [11], more than 1000 nM; in the experiment “cells [1]” it was 34 nM. Moreover, the half-inhibitory concentration (IC50) in the experiment “cells [2]” was 31 nM; in the experiment “cells [3]”, 2120 nM; in “cells [4]”, 2500 nM; in “cells [5]”, more than 10000 nM. Besides, the Ratio IC50 in [8] is 20.

`CC(C)S(=O)(=O)c1ccccc1Nc1nc(N/N=C/c2ccc(C(F)(F)F)cc2)ncc1Cl`: the 50% inhibitory concentration (IC50) came to 3.6 nM in experiment [6]; 73 nM in [7]; 3.4 nM in experiment [9]; 380 nM in experiment [10]; 593 nM in experiment [11]; 35 nM in the experiment “cells [1]”. The 50% inhibitory concentration (IC50) in the experiment “cells [2]” is 82 nM; in the experiment “cells [3]”, 940 nM; in “cells [4]”, more than 10000 nM; in “cells [5]”, 1120 nM. The Ratio IC50 in [8] worked out at 20.

Consider `CC(C)S(=O)(=O)c1ccccc1Nc1nc(N/N=C/c2cccc(Br)c2)ncc1Cl`, for which the IC50 in “cells [1]” was 1400 nM; in “cells [2]”, 1200 nM; in “cells [3]”, 1090 nM; in “cells [4]”, more than 10000 nM; in the experiment “cells [5]”, 1030 nM.

As to `COc1cc(/C=N/Nc2ncc(Cl)c(Nc3ccccc3S(=O)(=O)C(C)C)n2)cc(OC)c1OC`, the half-maximal inhibitory concentration (IC50) is 20 nM in “cells [1]”; 19 nM in “cells [2]”; 1150 nM in “cells [3]”; 1230 nM in the experiment “cells [4]”; 2150 nM in the experiment “cells [5]”.

Turning to `COc1ccc(/C=N/Nc2ncc(Cl)c(Nc3ccccc3S(=O)(=O)C(C)C)n2)cc1`, the IC50 in [6] is 4.8 nM; in [7] it was 82 nM; in experiment [9], 2.3 nM; in experiment [10], 157 nM; in experiment [11], 587 nM; in “cells [1]” it was 28 nM. In addition, the 50% inhibitory concentration (IC50) in “cells [2]” amounted to 20 nM; in “cells [3]”, 580 nM; in “cells [4]”, 1320 nM; in the experiment “cells [5]” it was 1130 nM. For the same compound, the Ratio IC50 in experiment [8] stood at 20.

For `CC(C)S(=O)(=O)c1ccccc1Nc1nc(N/N=C/c2ccncc2)ncc1Cl`, the concentration for half-maximal inhibition (IC50) in “cells [1]” worked out at 870 nM; in the experiment “cells [2]”, 820 nM; in the experiment “cells [3]” it was 1420 nM; in the experiment “cells [4]”, 1130 nM; in the experiment “cells [5]”, 980 nM.

For the compound `CC(C)S(=O)(=O)c1ccccc1Nc1nc(N/N=C/c2cccc(C(F)(F)F)c2)ncc1Cl`, the half-maximal inhibitory concentration (IC50) came out at 5.5 nM in experiment [6]; 69 nM in experiment [7]; 5 nM in [9]; 479 nM in experiment [10]; 460 nM in experiment [11]; 65 nM in the experiment “cells [1]”. Further, the half-inhibitory concentration (IC50) is 80 nM in the experiment “cells [2]”, 3340 nM in the experiment “cells [3]”, more than 10000 nM in the experiment “cells [4]” and 5500 nM in “cells [5]”. Further, the Ratio IC50 in experiment [8] was found to be 20.

As to `Cc1ccc(/C=N/Nc2ncc(Cl)c(Nc3ccccc3S(=O)(=O)C(C)C)n2)cc1`, the IC50 in the experiment “cells [1]” is 1620 nM; in “cells [2]”, 1730 nM; in “cells [3]” it was 4420 nM; in “cells [4]”, 1650 nM; in “cells [5]”, more than 10000 nM.

Consider `Cc1cc(Nc2ncc(Cl)c(Nc3ccccc3S(=O)(=O)C(C)C)n2)c(OC(C)C)cc1C1CCNCC1` [CERITINIB], for which the IC50 in the experiment “cells [1]” is 27 nM; in the experiment “cells [2]”, 18 nM; in “cells [3]” it was more than 10000 nM; in “cells [4]”, more than 10000 nM; in the experiment “cells [5]” it was more than 10000 nM.

On to `CC(C)S(=O)(=O)c1ccccc1Nc1nc(N/N=C/c2ccc([N+](=O)[O-])cc2)ncc1Cl`, for which the half-inhibitory concentration (IC50) in the experiment “cells [1]” is 2970 nM; in “cells [2]”, 1980 nM; in the experiment “cells [3]”, 9250 nM; in the experiment “cells [4]” it was more than 10000 nM; in the experiment “cells [5]”, 1720 nM.

Consider `CC(C)S(=O)(=O)c1ccccc1Nc1nc(N/N=C/c2ccco2)ncc1Cl`, for which the IC50 worked out at 750 nM in “cells [1]”; 2520 nM in “cells [2]”; 1940 nM in the experiment “cells [3]”; 1030 nM in the experiment “cells [4]”; 3100 nM in the experiment “cells [5]”.

For `CC(C)S(=O)(=O)c1ccccc1Nc1nc(N/N=C/c2ccccc2)ncc1Cl`, the concentration for half-maximal inhibition (IC50) was 250 nM in the experiment “cells [1]”; 470 nM in “cells [2]”; 1230 nM in “cells [3]”; 1480 nM in the experiment “cells [4]”; 1320 nM in “cells [5]”.

For `C/C(=N\Nc1ncc(Cl)c(Nc2ccccc2S(=O)(=O)C(C)C)n1)c1ccccc1F`, the 50% inhibitory concentration (IC50) in “cells [1]” is 540 nM; in “cells [2]”, 600 nM; in “cells [3]”, more than 10000 nM; in the experiment “cells [4]” it was 7150 nM; in the experiment “cells [5]”, more than 10000 nM.

In the case of `CC(C)S(=O)(=O)c1ccccc1Nc1nc(N/N=C/c2ccc(S(C)(=O)=O)cc2)ncc1Cl`, the 50% inhibitory concentration (IC50) in the experiment “cells [1]” came to 240 nM; in “cells [2]”, 310 nM; in “cells [3]”, 1330 nM; in “cells [4]”, 2020 nM; in the experiment “cells [5]” it was 1100 nM.

Consider `CC(C)S(=O)(=O)c1ccccc1Nc1nc(N/N=C/c2cccs2)ncc1Cl`, for which the half-inhibitory concentration (IC50) in the experiment “cells [1]” worked out at 910 nM; in “cells [2]” it was 880 nM; in the experiment “cells [3]”, 470 nM; in “cells [4]” it was 570 nM; in the experiment “cells [5]”, 880 nM.

For `CC(C)S(=O)(=O)c1ccccc1Nc1nc(N/N=C/c2cccnc2)ncc1Cl`, the IC50 in “cells [1]” was found to be 930 nM; in the experiment “cells [2]”, 970 nM; in the experiment “cells [3]”, 1150 nM; in “cells [4]”, 1530 nM; in the experiment “cells [5]”, 830 nM.

On to `CC(C)S(=O)(=O)c1ccccc1Nc1nc(N/N=C/c2ccc(F)cc2F)ncc1Cl`, for which the IC50 in the experiment “cells [1]” is 100 nM; in the experiment “cells [2]”, 110 nM; in the experiment “cells [3]”, 2280 nM; in “cells [4]”, 3360 nM; in the experiment “cells [5]”, more than 10000 nM.

On to `C/C(=N\Nc1ncc(Cl)c(Nc2ccccc2S(=O)(=O)C(C)C)n1)c1ccc(Br)cc1`, for which the concentration for half-maximal inhibition (IC50) is 2500 nM in “cells [1]”; 2380 nM in the experiment “cells [2]”; 4840 nM in “cells [3]”; more than 10000 nM in the experiment “cells [4]”; more than 10000 nM in the experiment “cells [5]”.

`C/C(=N\Nc1ncc(Cl)c(Nc2ccccc2S(=O)(=O)C(C)C)n1)c1ccc(C#N)cc1`: the half-maximal inhibitory concentration (IC50) in “cells [1]” is 270 nM; in “cells [2]”, 310 nM; in the experiment “cells [3]”, more than 10000 nM; in “cells [4]”, 6840 nM; in the experiment “cells [5]” it was more than 10000 nM.

On to `CC(C)S(=O)(=O)c1ccccc1Nc1nc(N/N=C/c2ccccc2F)ncc1Cl`, for which the IC50 in “cells [1]” was 450 nM; in “cells [2]”, 360 nM; in “cells [3]”, more than 10000 nM; in “cells [4]” it was 1230 nM; in the experiment “cells [5]”, 1420 nM.

For the compound `CC(C)S(=O)(=O)c1ccccc1Nc1nc(N/N=C/c2ccc(Cl)cc2)ncc1Cl`, the IC50 in the experiment “cells [1]” came out at 1320 nM; in the experiment “cells [2]” it was 1700 nM; in “cells [3]” it was 2930 nM; in “cells [4]” it was 2900 nM; in the experiment “cells [5]”, 8190 nM.
